Measurements reported in PubChem BioAssay (NCI).
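96-well plates; 48 h exposure; 5 concentrations. Endpoints by linear interpolation between flanking doses. Not reached: highest tested concentration assigned. GI50: concentration for 50% inhibition of growth. TGI: total growth inhibition.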

What was measured:
Test in all cases: growth of human tumour cells (NCI), 48 h
[1] = tested on: HL-60(TB) leukemia
[2] = tested on: NCI-H522 lung
[3] = tested on: PC-3 prostate
[4] = tested on: SK-MEL-28 melanoma
[5] = tested on: NCI-H23 lung
[6] = tested on: U251 CNS
[7] = tested on: MDA-MB-231 breast
[8] = tested on: COLO 205 colon
[9] = tested on: IGROV1 ovarian
[10] = tested on: MDA-MB-468 breast
[11] = tested on: SK-MEL-5 melanoma
[12] = tested on: K-562 leukemia
[13] = tested on: SK-OV-3 ovarian
[14] = tested on: UACC-257 melanoma
[15] = tested on: CAKI-1 renal
[16] = tested on: M14 melanoma
[17] = tested on: OVCAR-8 ovarian
[18] = tested on: SF-295 CNS
[19] = tested on: SNB-19 CNS
[20] = tested on: OVCAR-3 ovarian
[21] = tested on: HCC-2998 colon
[22] = tested on: RPMI-8226 leukemia
[23] = tested on: MCF7 breast
[24] = tested on: NCI-H226 lung
[25] = tested on: KM12 colon
[26] = tested on: SW-620 colon
[27] = tested on: SN12C renal
[28] = tested on: OVCAR-5 ovarian
[29] = tested on: NCI-H460 lung
[30] = tested on: MALME-3M melanoma
[31] = tested on: SR leukemia
[32] = tested on: DU-145 prostate
[33] = tested on: A498 renal
[34] = tested on: UO-31 renal
[35] = tested on: HOP-62 NSCLC
[36] = tested on: OVCAR-4 ovarian
[37] = tested on: BT-549 breast
[38] = tested on: SK-MEL-2 melanoma
[39] = tested on: TK-10 renal
[40] = tested on: CCRF-CEM leukemia
[41] = tested on: HCT-15 colon
[42] = tested on: LOX IMVI melanoma
[43] = tested on: MDA-MB-435
[44] = tested on: T-47D breast
[45] = tested on: HS 578T breast
[46] = tested on: MOLT-4 leukemia
[47] = tested on: RXF 393 renal
[48] = tested on: 786-0 renal
[49] = tested on: HT29 colon
[50] = tested on: HOP-92 NSCLC
[51] = tested on: UACC-62 melanoma
[52] = tested on: SF-539 CNS
[53] = tested on: ACHN renal
[54] = tested on: SF-268 CNS
[55] = tested on: HCT-116 colon
[56] = tested on: EKVX NSCLC
[57] = tested on: A549 NSCLC

In the case of `Cn1cc(-c2cc3nc(-c4cn(C)c5ncc(Br)cc45)cc(N)n3n2)c2cc(F)ccc21`, the GI50 [1] is reported as 12.1 µM, the TGI [1] is reported as 73.1 µM and the GI50 [2] is reported as 5.61 µM. It also gave a TGI [2] of 21.6 µM, a GI50 [3] of 10.4 µM and a TGI [3] of 46.8 µM. For the same molecule, the GI50 [4] was 3.9 µM, the TGI [4] was 14.4 µM and the GI50 [5] was 7.44 µM. The TGI [5] was 21.3 µM, the GI50 [6] was 3.23 µM and the TGI [6] was 11.5 µM. It also gave a GI50 [7] of 2.9 µM, a TGI [7] of 10 µM and a GI50 [8] of 12.6 µM. For the same molecule, the TGI [8] was 40.7 µM, the GI50 [9] was 3.91 µM and the TGI [9] was 14.1 µM. The GI50 [10] was 1.95 µM, the TGI [10] was 4.19 µM and the GI50 [11] was 12.5 µM. For the same molecule, the TGI [11] was 25.4 µM, the GI50 [12] was 6 µM and the TGI [12] was over 100 µM. For the same molecule, the GI50 [13] was 15 µM, the TGI [13] was 32.4 µM and the GI50 [14] was 7.29 µM. For the same molecule, the TGI [14] was 21.4 µM, the GI50 [15] was 8.11 µM and the TGI [15] was 22.5 µM. It also gave a GI50 [16] of 4.05 µM, a TGI [16] of 14.9 µM and a GI50 [17] of 6.2 µM. The TGI [17] was 20.9 µM, the GI50 [18] was 1.8 µM and the TGI [18] was 3.82 µM. For the same molecule, the GI50 [19] was 11 µM, the TGI [19] was 23.8 µM and the GI50 [20] was 11.1 µM. For the same molecule, the TGI [20] was 27 µM, the GI50 [21] was 7.19 µM and the TGI [21] was 27.6 µM. The GI50 [22] was 10.1 µM, the TGI [22] was over 100 µM and the GI50 [23] was 3.6 µM. For the same molecule, the TGI [23] was 12.8 µM, the GI50 [24] was 5.36 µM and the TGI [24] was 19.8 µM. For the same molecule, the GI50 [25] was 12.9 µM, the TGI [25] was 49 µM and the GI50 [26] was 6.46 µM. For the same molecule, the TGI [26] was 21.5 µM, the GI50 [27] was 4.41 µM and the TGI [27] was 19.8 µM. It also gave a GI50 [28] of 12.5 µM, a TGI [28] of 29.4 µM and a GI50 [29] of 3.44 µM. The TGI [29] was 11.6 µM, the GI50 [30] was 3.43 µM and the TGI [30] was 12.1 µM. For the same molecule, the GI50 [31] was 4.58 µM, the TGI [31] was over 100 µM and the GI50 [32] was 5.16 µM. For the same molecule, the TGI [32] was 19.3 µM, the GI50 [33] was 13.5 µM and the TGI [33] was 30.2 µM. For the same molecule, the GI50 [34] was 12.2 µM, the TGI [34] was 25.4 µM and the GI50 [35] was 7.8 µM. The TGI [35] was 24.3 µM, the GI50 [36] was 4.51 µM and the TGI [36] was 19.3 µM. For the same molecule, the GI50 [37] was 10.9 µM, the TGI [37] was 23.6 µM and the GI50 [38] was 11.4 µM. The TGI [38] was 24.2 µM, the GI50 [39] was 4.92 µM and the TGI [39] was 18.8 µM. The GI50 [40] was 8.29 µM, the TGI [40] was over 100 µM and the GI50 [41] was 3.73 µM. For the same molecule, the TGI [41] was 16.4 µM, the GI50 [42] was 1.91 µM and the TGI [42] was 3.47 µM. The GI50 [43] was 6.19 µM, the TGI [43] was 20.1 µM and the GI50 [44] was 3.25 µM. The TGI [44] was 15.6 µM, the GI50 [45] was 10.7 µM and the TGI [45] was 48.6 µM. The GI50 [46] was 5.98 µM, the TGI [46] was over 100 µM and the GI50 [47] was 2.54 µM. The TGI [47] was 5.96 µM, the GI50 [48] was 4.64 µM and the TGI [48] was 17 µM. It also gave a GI50 [49] of 3.18 µM, a TGI [49] of 11.3 µM and a GI50 [50] of 11.3 µM. It also gave a TGI [50] of 33.8 µM, a GI50 [51] of 2.64 µM and a TGI [51] of 10.9 µM. The GI50 [52] was 3.54 µM, the TGI [52] was 13 µM and the GI50 [53] was 3.72 µM. For the same molecule, the TGI [53] was 13.2 µM, the GI50 [54] was 19.2 µM and the TGI [54] was 79.8 µM. It also gave a GI50 [55] of 15 µM, a TGI [55] of 32.3 µM and a GI50 [56] of 11.4 µM. It also gave a TGI [56] of 29.7 µM, a GI50 [57] of 3.37 µM and a TGI [57] of 16.8 µM.
